From US11072616B2, “Cyclic peptides targeting alpha-4-beta-7 integrin” (Zealand Pharma A/S, priority 2015, dated 2021)

Biological target: T1, integrin α4β7 (Homo sapiens, UniProt P13612+P26010)
T1 sequence (P13612 34-977 limits assumed): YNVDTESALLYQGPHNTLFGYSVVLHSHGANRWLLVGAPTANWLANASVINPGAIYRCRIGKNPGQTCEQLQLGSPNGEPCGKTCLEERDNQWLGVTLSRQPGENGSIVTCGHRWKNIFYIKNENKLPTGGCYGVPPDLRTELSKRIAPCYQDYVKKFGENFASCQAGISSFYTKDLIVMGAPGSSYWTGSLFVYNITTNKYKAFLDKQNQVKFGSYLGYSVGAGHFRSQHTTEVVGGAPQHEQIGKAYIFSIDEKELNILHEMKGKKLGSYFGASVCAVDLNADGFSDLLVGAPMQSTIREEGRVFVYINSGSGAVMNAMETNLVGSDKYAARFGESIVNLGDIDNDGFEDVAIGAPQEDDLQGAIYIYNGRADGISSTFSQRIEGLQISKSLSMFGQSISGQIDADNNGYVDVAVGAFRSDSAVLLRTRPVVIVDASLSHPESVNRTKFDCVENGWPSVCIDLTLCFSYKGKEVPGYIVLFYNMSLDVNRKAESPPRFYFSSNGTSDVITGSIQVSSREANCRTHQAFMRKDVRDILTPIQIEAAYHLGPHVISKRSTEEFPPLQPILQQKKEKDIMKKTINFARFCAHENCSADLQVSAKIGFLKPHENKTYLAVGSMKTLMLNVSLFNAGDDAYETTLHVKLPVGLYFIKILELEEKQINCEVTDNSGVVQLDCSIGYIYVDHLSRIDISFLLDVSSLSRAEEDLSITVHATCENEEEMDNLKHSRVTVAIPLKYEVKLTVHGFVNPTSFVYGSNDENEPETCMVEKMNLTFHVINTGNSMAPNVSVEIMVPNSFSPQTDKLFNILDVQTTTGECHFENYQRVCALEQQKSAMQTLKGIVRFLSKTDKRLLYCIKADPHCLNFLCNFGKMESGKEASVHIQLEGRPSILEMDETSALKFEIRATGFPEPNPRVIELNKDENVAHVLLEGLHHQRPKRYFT
T1 sequence (P26010 20-723 limits assumed): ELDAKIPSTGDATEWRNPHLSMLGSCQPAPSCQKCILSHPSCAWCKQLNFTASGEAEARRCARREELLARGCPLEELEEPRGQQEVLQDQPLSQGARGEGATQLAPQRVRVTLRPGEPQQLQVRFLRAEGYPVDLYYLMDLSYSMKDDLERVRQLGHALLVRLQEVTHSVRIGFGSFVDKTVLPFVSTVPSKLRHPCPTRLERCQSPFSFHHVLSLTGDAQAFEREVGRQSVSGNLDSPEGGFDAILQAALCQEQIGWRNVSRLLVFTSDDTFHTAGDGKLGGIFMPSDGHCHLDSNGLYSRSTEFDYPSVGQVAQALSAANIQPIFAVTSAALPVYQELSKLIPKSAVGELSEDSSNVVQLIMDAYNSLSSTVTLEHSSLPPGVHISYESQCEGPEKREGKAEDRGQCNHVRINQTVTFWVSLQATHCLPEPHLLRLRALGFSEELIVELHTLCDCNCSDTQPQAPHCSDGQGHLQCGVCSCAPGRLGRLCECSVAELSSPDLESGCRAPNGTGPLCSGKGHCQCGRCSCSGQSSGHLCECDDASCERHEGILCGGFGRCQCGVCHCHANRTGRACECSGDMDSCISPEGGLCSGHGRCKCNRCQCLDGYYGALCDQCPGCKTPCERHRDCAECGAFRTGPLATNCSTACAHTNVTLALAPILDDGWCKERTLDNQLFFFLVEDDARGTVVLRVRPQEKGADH
Assay: Integrin α4β7—MAdCAM-1 competition assay (ELISA)
Type: binding
Settings: not given
Protocol: Integrin α4β7—MAdCAM-1 Competition Assay
The plate was incubated at 4° C. overnight. […] The plate was then incubated for 1 hour at room temperature. The plate was washed three times with wash buffer (50 mM Tris, 100 mM NaCl, 1 mM MnCl2, 0.05% Tween). To each well, 50 μl of compound diluted in assay buffer was added by transfer from a compound serial dilution plate. […] The plate was incubated at room temperature with shaking for 2 hours to reach binding equilibrium. Then the plate was washed three times in wash buffer and 100 μl anti-human IgG Fc specific-horseradish peroxidase (HRP) (Abcam, Ab97225) diluted at 1:2000 in assay buffer was added to each well. The plate was incubated at room temperature for 1 hour under agitation. The plates were then washed three times and 100 μl of 1,3′,5,5′-tetramethylbenxidie (TMB) was then added to each well.

Structure (SMILES)	Selectivity ELISA
CC(C)C[C@@H]1NC(=O)c2ccc(-c3ccc(N4CCN(C(=O)COCC(=O)N5CCN(c6ccc(-c7ccc8cc7CNC(=O)[C@@H]7CCCN7[C@H](C(=O)NC(C)(C)C)[C@H](C)NC(=O)[C@H]([C@@H](C)O)NC(=O)[C@H](CC(=O)O)NC(=O)[C@H](CC(C)C)NC8=O)cc6)CC5)CC4)cc3)c(c2)CNC(=O)[C@@H]2CCCN2[C@H](C(=O)NC(C)(C)C)[C@H](C)NC(=O)[C@H]([C@@H](C)O)NC(=O)[C@H](CC(=O)O)NC1=O [Compound 390]	1.749

Same assay, conditions: ratio a4b1 ELISA IC50 / a4b7 ELISA IC50

Structure (SMILES)	Selectivity ELISA
CC(C)C[C@@H]1NC(=O)[C@H](Cc2csc(-c3ccccn3)n2)NC(=O)[C@@H]2CCCN2[C@H](C(=O)NC(C)(C)C)[C@H](C)NC(=O)[C@H]([C@@H](C)O)NC(=O)[C@H](CC(=O)O)NC1=O [Compound 95]	2.4
COc1ccc(C[C@@H]2NC(=O)[C@@H]3CCCN3[C@H](C(=O)NC(C)(C)C)[C@H](C)NC(=O)[C@H]([C@@H](C)O)NC(=O)[C@H](CC(=O)O)NC(=O)[C@H](CC(C)C)NC(=O)[C@H]3CCCN3C2=O)cc1OC [Compound 127]	7.8
CC(C)C[C@@H]1NC(=O)[C@H](Cc2ccc(O)cc2)NC(=O)[C@@H]2CCCN2[C@H](C(=O)NC(C)(C)C)[C@H](C)NC(=O)[C@H](C(C)(C)S)NC(=O)[C@H](CC(=O)O)NC1=O [Compound 55]	1.1
CC(C)C[C@@H]1NC(=O)[C@H](Cc2ccc(-c3ccccc3)cc2)NC(=O)[C@@H]2C[C@@H](F)CN2[C@H](C(=O)NC(C)(C)C)[C@H](C)NC(=O)[C@H]([C@@H](C)O)NC(=O)[C@H](CC(=O)O)NC1=O [Compound 46]	2.4
CO[C@H](C)[C@@H]1NC(=O)[C@H](CC(=O)O)NC(=O)[C@H](CC(C)C)NC(=O)[C@H](Cc2ccccc2)NC(=O)[C@@H]2CCCN2[C@H](C(=O)NC(C)(C)C)[C@H](C)NC1=O [Compound 40]	1.9
Cc1cccc(C)c1-c1cccc(C[C@@H]2NC(=O)[C@@H]3CCCN3[C@H](C(=O)NC(C)(C)C)[C@H](C)NC(=O)[C@H]([C@@H](C)O)NC(=O)[C@H](CC(=O)O)NC(=O)[C@H](CC(C)C)NC(=O)C[C@H](CCCCN)NC2=O)c1 [Compound 265]	46.2
CC(C)C[C@@H]1NC(=O)[C@H]2CCCCN2C(=O)[C@H](Cc2ccccc2-c2ccccc2)NC(=O)[C@@H]2CCCN2[C@H](C(=O)NC(C)(C)C)[C@H](C)NC(=O)[C@H]([C@@H](C)O)NC(=O)[C@H](CC(=O)O)NC1=O [Compound 134]	7.6
CC(C)C[C@@H]1NC(=O)CNC(=O)[C@H](Cc2ccc(CN)cc2)NC(=O)[C@@H]2CCCN2[C@H](C(=O)NC(C)(C)C)[C@H](C)NC(=O)[C@H]([C@@H](C)O)NC(=O)[C@H](CC(=O)O)NC1=O [Compound 165]	22.8
CC(C)C[C@@H]1NC(=O)[C@H](Cc2c[nH]cn2)NC(=O)[C@@H]2CCCN2[C@H](C(=O)NC(C)(C)C)[C@@H](CSc2ccccc2)NC(=O)[C@H](C(C)C)NC(=O)[C@H](CC(=O)O)NC1=O [Compound 2]	1.697
CC(C)C[C@@H]1NC(=O)[C@H]2CCCCN2C(=O)[C@@H]2CCCN2[C@H](C(=O)NC(C)(C)C)[C@H](C)NC(=O)[C@H]([C@@H](C)O)NC(=O)[C@H](CC(=O)O)NC1=O [Compound 51]	3.3
CC(C)C[C@@H]1NC(=O)c2ccc(Br)c(c2)CNC(=O)[C@H](Cc2ccc(O)cc2)NC(=O)[C@@H]2CCCN2[C@H](C(=O)NC(C)(C)C)[C@H](C)NC(=O)[C@H]([C@@H](C)O)NC(=O)[C@H](CC(=O)O)NC1=O [Compound 336]	5.6
CC(C)C[C@@H]1NC(=O)[C@@H]2C[C@@H](O)CN2C(=O)[C@H](Cc2ccc(O)cc2)NC(=O)[C@@H]2CCCN2[C@H](C(=O)NC(C)(C)C)[C@H](C)NC(=O)[C@H]([C@@H](C)O)NC(=O)[C@H](CC(=O)O)NC1=O [Compound 139]	0.7
CC[C@H](C)[C@@H]1NC(=O)[C@H](CC(=O)O)NC(=O)[C@H](CC(C)C)NC(=O)C[C@H](CCCCN)NC(=O)[C@H](Cc2ccc(CN)cc2)NC(=O)[C@@H]2CCCN2[C@H](C(=O)NC(C)(C)C)[C@H](C)NC1=O [Compound 215]	12.4
CC(C)C[C@@H]1NC(=O)[C@H]2CCCCN2C(=O)[C@H](Cc2cccc3ccccc23)NC(=O)[C@@H]2CCCN2[C@H](C(=O)NC(C)(C)C)[C@H](C)NC(=O)[C@H]([C@@H](C)O)NC(=O)[C@H](CC(=O)O)NC1=O [Compound 143]	2.1
CC(C)C[C@@H]1NC(=O)C[C@H](CCCCN)NC(=O)CN(Cc2ccccc2)C(=O)[C@@H]2CCCN2[C@H](C(=O)NC(C)(C)C)[C@H](C)NC(=O)[C@H]([C@@H](C)O)NC(=O)[C@H](CC(=O)O)NC1=O [Compound 296]	94.8
Cc1cccc(C)c1-c1ccccc1C[C@@H]1NC(=O)[C@@H]2CCCN2[C@H](C(=O)NC(C)(C)C)[C@H](C)NC(=O)[C@H]([C@@H](C)O)NC(=O)[C@H](CC(=O)O)NC(=O)[C@H](CC(C)C)NC(=O)C[C@H](CCCCN)NC1=O [Compound 272]	58.1
CC(C)C[C@@H]1NC(=O)[C@H]2C[C@H](O)CN2C(=O)[C@H](Cc2ccc(O)cc2)NC(=O)[C@@H]2CCCN2[C@H](C(=O)NC(C)(C)C)[C@H](C)NC(=O)[C@H]([C@@H](C)O)NC(=O)[C@H](CC(=O)O)NC1=O [Compound 140]	9.6
C[C@@H]1NC(=O)[C@H]([C@@H](C)O)NC(=O)[C@H](CC(=O)O)NC(=O)[C@H](CC(C)(C)C)NC(=O)[C@H]2CCCCN2C(=O)[C@H](Cc2ccc(O)cc2)NC(=O)[C@@H]2CCCN2[C@@H]1C(=O)NC(C)(C)C [Compound 150]	8.2
CC(C)C[C@@H]1NC(=O)[C@@H]2C[C@@H](OCc3ccccc3)CN2C(=O)[C@@H]2CCCN2[C@H](C(=O)NC(C)(C)C)[C@H](C)NC(=O)[C@H]([C@@H](C)O)NC(=O)[C@H](CC(=O)O)NC1=O [Compound 57]	2.5
CC(C)C[C@@H]1NC(=O)[C@H]2CCCCN2C(=O)[C@H](Cc2cscn2)NC(=O)[C@@H]2CCCN2[C@H](C(=O)NC(C)(C)C)[C@H](C)NC(=O)[C@H]([C@@H](C)O)NC(=O)[C@H](CC(=O)O)NC1=O [Compound 131]	3.1
CC(C)C[C@@H]1NC(=O)c2ccc(-c3cccc(CN)c3)c(c2)CNC(=O)[C@H](Cc2ccc(O)cc2)NC(=O)[C@@H]2CCCN2[C@H](C(=O)NC(C)(C)C)[C@H](C)NC(=O)[C@H]([C@@H](C)O)NC(=O)[C@H](CC(=O)O)NC1=O [Compound 339]	5.8
CC(C)C[C@@H]1NC(=O)[C@H](C2CCCCC2)NC(=O)[C@@H]2CCCN2[C@H](C(=O)NC(C)(C)C)[C@H](C)NC(=O)[C@H]([C@@H](C)O)NC(=O)[C@H](CC(=O)O)NC1=O [Compound 91]	14.5
CC(C)C[C@@H]1NC(=O)c2ccc(-c3cccc(CN)c3)c(c2)CNC(=O)[C@@H]2CCCN2[C@H](C(=O)NC(C)(C)C)[C@H](C)NC(=O)[C@H]([C@@H](C)O)NC(=O)[C@H](CC(=O)O)NC1=O [Compound 382]	2.0
CC(C)C[C@@H]1NC(=O)[C@H]2C[C@H](O)CN2C(=O)[C@H](Cc2cscn2)NC(=O)[C@@H]2CCCN2[C@H](C(=O)NC(C)(C)C)[C@H](C)NC(=O)[C@H]([C@@H](C)O)NC(=O)[C@H](CC(=O)O)NC1=O [Compound 151]	4.1
